# Measured values from US20260356835A1, “BICYCLIC HETEROARYL COMPOUNDS” (QuantX Biosciences US, Inc., priority 2023, published 2026).
# How the values were obtained:
# [1] = molecular target: T1, N-his8-TEV-hPARG (389-976) (Homo sapiens, UniProt Q86W56); test: PARG Biochemical Enzymatic Assay (PARG inhibition HTRF assay); settings: 62.5 pM PARG, 5 nM Biotin-Parylated PARP1 substrate, 60 minutes preincubation, 10 minutes reaction at 23 °C
# T1 construct: N-his8-TEV-hPARG (389-976); His8 (N); TEV protease cleavage site (N); made in house; host or cells: E. coli BL21(DE3)
# T1 sequence (Q86W56 389-976): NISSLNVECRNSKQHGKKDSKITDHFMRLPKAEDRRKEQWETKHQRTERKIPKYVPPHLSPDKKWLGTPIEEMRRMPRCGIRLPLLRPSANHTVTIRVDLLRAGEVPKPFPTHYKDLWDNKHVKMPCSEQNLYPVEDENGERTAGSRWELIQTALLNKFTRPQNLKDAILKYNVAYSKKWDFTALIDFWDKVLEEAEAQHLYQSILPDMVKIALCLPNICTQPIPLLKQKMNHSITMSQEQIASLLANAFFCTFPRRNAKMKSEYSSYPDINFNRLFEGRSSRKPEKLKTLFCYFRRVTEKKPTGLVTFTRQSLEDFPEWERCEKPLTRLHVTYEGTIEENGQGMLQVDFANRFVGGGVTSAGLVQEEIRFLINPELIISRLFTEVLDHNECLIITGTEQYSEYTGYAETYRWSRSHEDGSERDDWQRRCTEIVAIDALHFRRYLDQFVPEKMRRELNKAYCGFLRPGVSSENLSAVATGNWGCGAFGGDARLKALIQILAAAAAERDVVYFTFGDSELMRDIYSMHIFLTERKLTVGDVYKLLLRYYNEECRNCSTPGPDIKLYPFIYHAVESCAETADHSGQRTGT
# Description: PARG Biochemical Enzymatic Assay
# TEV-His8-PolyADP-Ribose Polymerase 1 (379-1014) (PARP1) and N-his8-TEV-hPARG (389-976) were used to transform BL21(DE3) competent cells followed by growth for 1 hour at 37 °C and plating on Kanamycin resistant agar plates. A single colony was then inoculated into 1 ml of Luria Broth and expansion into a 1 liter scale for growth at 37 °C for 3 hours. Expression was induced via 0.2 mM IPTG induction for 20 hours at 16 °C in BL21(DE3) E. coli. Purification was then performed using a Nickel column, size exclusion chromatography and HPLC analysis.
# For substrate preparation, […] nicked DNA and 2 μM PARP1 protein were mixed for 10 minutes at 25 °C 10 μM biotin-NAD+ and 100 μM NAD+ were then added and incubated for 60 minutes at 30 °C to yield PARylated PARP1 substrate.
# For compound screening, compounds were serially diluted to a 3× final concentration in assay buffer (Tris pH7.5 50 mM, KCl 50 mM, Tween-20 0.01%, BSA 0.1 mg/ml, EDTA 3 mM, EGTA 0.4 mM, DTT 1 mM) containing 1% DMSO. A top concentration of 1.5 μM for a 10-point dose response curve using a 1:3 dilution curve was used. 2.5×PARG (156.25 pM working concentration, 62.5 pM final concentration) was prepared in assay buffer and 4 ul added to a 384 well assay plate containing 2 μl of serially diluted compound. The plate was then centrifuged for 10 seconds and incubated for 60 minutes at 23 °C. 4 μl of 2.5× Biotin-Parylated PARP1 (12.5 nM working concentration, 5 nM final concentration) was then added to the plate and incubated for 10 minutes at 23 °C. 4 μl of […] Detection reagent containing 0.44 μg/ml of Streptavidin-Europium cryptate and 4 μg/ml of anti-6His-XL665 monoclonal antibody was added to the plate and incubated for 60 minutes at 23 °C. The Homogeneous Time Resolved Fluorescent (HTRF) signal was then measured on an Envision plate reader using and excitation wavelength of 337 nm and emission wavelengths of 615 nm and 665 nm. Normalized percent inhibition was then calculated using the following equation: % Inhibition normalized=(compound signal-min signal)/(max signal-min signal)*100%, where Maximum signal was substrate only wells and Minimum signal was enzyme and substrate well. IC50 was calculated by fitting % Inhibition values and log of compound concentrations to nonlinear regression (log(inhibitor) vs. response—Variable slope(four parameters)) with GraphPad 9.4.1
# For biochemical activity, bracket is denoted as: A<100 nM; 100 nM<B<500 nM; C>500 nM
# Kuramochi cells = test: Cellular Viability Assay (5 day Kuramochi cell viability, CellTiter-Glo); type: cell-based; settings: 5 days, 37 °C, growth inhibition relative to Day 0 (T0) and DMSO
# Description: Kuramochi cells were seeded at a density of 1000 cells per well in a 384-well, white, sterile, clear bottom plate, using a Multidrop liquid dispenser and incubated for 24 hours at 37 °C in a 5% CO2 humidified environment. 24 hours later, compounds were added starting at a top dose of 10 μM for a 9-point dose response curve at a 1:3 dilution using an iDOT HT liquid handler and incubated for 5 days at 37 °C in a 5% CO2 humidified environment. After 5 days and at Day 0, plates were incubated at room temperature for 30 minutes followed by the addition of 30 μl of CellTiter-Glo Reagent. Plates were then mixed for 10 minutes on an orbital shaker followed by incubation at room temperature for 20 minutes. Luminescence was then read using the Envision plate reader. Percent Growth Inhibition was then calculated using the following equation: Percent Growth Inhibition normalized=100−(compound signal−T0)/(max signal−T0)*100%, where Max Signal refers to the DMSO only treated cells and T0 refers to the Day0 viability measurement. Growth Inhibition 50 was then calculated using the following equation: Y=Bottom+(Top−Bottom)/(1+10^((Log IC50−X)*hillslope)).
# For cell activity, bracket is denoted as: A<1 uM; 1 uM<B<5 uM; C>5 uM.
IC50 [1],SMILES,IC50 (Kuramochi cells)
< 100 nM,"Cc1nnc(N2CCN(c3cc(S(=O)(=O)NC4(C#N)CC4)cc4c(-c5nnc(C(F)F)s5)cnn34)CC2)o1 [Example 24, N-(1-cyanocyclopropyl)-3-[5-(difluoromethyl)-1,3,4-thiadiazol-2-yl]-7-[4-(5-methyl-1,3,4-oxadiazol-2-yl)piperazin-1-yl]pyrazolo[1,5-a]pyridine-5-sulfonamide]",< 1000 nM
< 100 nM,"C#CC1(NS(=O)(=O)c2cc(N3CCN(C(=O)N4CC[C@H](O)C4)CC3)c3cnn(-c4nnc(C(F)F)s4)c3c2)CC1 [Example 26, 1-[5-(difluoromethyl)-1,3,4-thiadiazol-2-yl]-N-(1-ethynylcyclopropyl)-4-[4-[(3S)-3-hydroxypyrrolidine-1-carbonyl]piperazin-1-yl]indazole-6-sulfonamide]",< 1000 nM
100 to 500 nM,"CC(=O)N1CCN(c2cc(S(=O)(=O)NC3(C)CC3)cc3c2cnn3-c2nc3c(s2)C(=O)COC3)CC1 [Example 28, 4-(4-acetylpiperazin-1-yl)-N-(1-methylcyclopropyl)-1-(7-oxo-6,7-dihydro-4H-pyrano[3,4-d]thiazol-2-yl)-1H-indazole-6-sulfonamide]",> 5000 nM
100 to 500 nM,"CC1(NS(=O)(=O)c2cc(-n3cc(C4(O)CCC4)cn3)c3cnn(-c4nnc(C5(O)CCC5)s4)c3c2)CC1 [Example 31, 4-[4-(1-hydroxycyclobutyl)pyrazol-1-yl]-1-[5-(1-hydroxycyclobutyl)-1,3,4-thiadiazol-2-yl]-N-(1-methylcyclopropyl)indazole-6-sulfonamide]",1000 to 5000 nM
< 100 nM,"N#CC1(c2nnc(-n3ncc4c(N5CCC6(CC5)COC6)cc(S(=O)(=O)NC5(C(F)F)CC5)cc43)s2)CC1 [Example 32, 1-(5-(1-cyanocyclopropyl)-1,3,4-thiadiazol-2-yl)-N-(1-(difluoromethyl)cyclopropyl)-4-(2-oxa-7-azaspiro[3.5]nonan-7-yl)-1H-indazole-6-sulfonamide]",< 1000 nM
100 to 500 nM,"CC1(NS(=O)(=O)c2cc(-n3cc(C4(C#N)CC4)cn3)c3cnn(-c4nnc(C5(O)CCC5)s4)c3c2)CC1 [Example 33, 4-(4-(1-cyanocyclopropyl)-1H-pyrazol-1-yl)-1-(5-(1-hydroxycyclobutyl)-1,3,4-thiadiazol-2-yl)-N-(1-methylcyclopropyl)-1H-indazole-6-sulfonamide]",1000 to 5000 nM
< 100 nM,"CC1(NS(=O)(=O)c2cc(N3CCC4(CC3)COC4)n3cnc(-c4nnc(C(F)F)s4)c3c2)CC1 [Example 34, 1-(5-(difluoromethyl)-1,3,4-thiadiazol-2-yl)-N-(1-methylcyclopropyl)-5-(2-oxa-7-azaspiro[3.5]nonan-7-yl)imidazo[1,5-a]pyridine-7-sulfonamide]",< 1000 nM
< 100 nM,"O=S(=O)(NC1(C(F)F)CC1)c1cc(N2CCC3(CC2)COC3)n2cnc(-c3nnc(C(F)F)s3)c2c1 [Example 35, 1-(5-(difluoromethyl)-1,3,4-thiadiazol-2-yl)-N-(1-(difluoromethyl)cyclopropyl)-5-(2-oxa-7-azaspiro[3.5]nonan-7-yl)imidazo[1,5-a]pyridine-7-sulfonamide]",< 1000 nM
< 100 nM,"N#CC1(NS(=O)(=O)c2cc(N3CCC4(CC3)COC4)n3cnc(-c4nnc(C(F)F)s4)c3c2)CC1 [Example 36, N-(1-cyanocyclopropyl)-1-(5-(difluoromethyl)-1,3,4-thiadiazol-2-yl)-5-(2-oxa-7-azaspiro[3.5]nonan-7-yl)imidazo[1,5-a]pyridine-7-sulfonamide]",< 1000 nM
< 100 nM,"O=S(=O)(NC1(C(F)F)CC1)c1cc(N2CCC3(CC2)COC3)c2ncc(-c3nnc(C(F)F)s3)n2c1 [Example 37, 3-(5-(difluoromethyl)-1,3,4-thiadiazol-2-yl)-N-(1-(difluoromethyl)cyclopropyl)-8-(2-oxa-7-azaspiro[3.5]nonan-7-yl)imidazo[1,2-a]pyridine-6-sulfonamide]",< 1000 nM
< 100 nM,"O=S(=O)(NC1(C(F)F)CC1)c1cc(N2CCC3(CC2)COC3)c2cnc(-c3nnc(C(F)F)s3)n2c1 [Example 39, 3-(5-(difluoromethyl)-1,3,4-thiadiazol-2-yl)-N-(1-(difluoromethyl)cyclopropyl)-8-(2-oxa-7-azaspiro[3.5]nonan-7-yl)imidazo[1,5-a]pyridine-6-sulfonamide]",< 1000 nM
< 100 nM,"O=S(=O)(NC1(C(F)F)CC1)c1cc(N2CCC3(CC2)COC3)c2nnc(-c3nnc(C(F)F)s3)n2c1 [Example 40, 3-(5-(Difluoromethyl)-1,3,4-thiadiazol-2-yl)-N-(1-(difluoromethyl)cyclopropyl)-8-(2-oxa-7-azaspiro[3.5]nonan-7-yl)-[1,2,4]triazolo[4,3-a]pyridine-6-sulfonamide]",< 1000 nM
